Test results as given in PubChem BioAssay (NCI).
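Compound exposure: 48 hours, 5 concentrations, 96-well plates. TGI marks complete inhibition of growth.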

What was measured:
Assay in all cases: NCI tumour cell line growth inhibition, 48 h
[1] = system: M14 melanoma
[2] = system: HOP-92 NSCLC
[3] = system: MDA-MB-435
[4] = system: SNB-19 CNS
[5] = system: CAKI-1 renal
[6] = system: A549 NSCLC
[7] = system: NCI-H23 lung
[8] = system: NCI-H226 lung
[9] = system: DU-145 prostate
[10] = system: HS 578T breast
[11] = system: NCI-H460 lung
[12] = system: MCF7 breast
[13] = system: KM12 colon
[14] = system: SF-295 CNS
[15] = system: 786-0 renal
[16] = system: NCI-H522 lung
[17] = system: MDA-N
[18] = system: HCT-15 colon
[19] = system: LOX IMVI melanoma
[20] = system: MALME-3M melanoma
[21] = system: UACC-62 melanoma
[22] = system: NCI/ADR-RES ovarian
[23] = system: HCT-116 colon
[24] = system: SW-620 colon
[25] = system: MOLT-4 leukemia
[26] = system: TK-10 renal
[27] = system: RXF 393 renal
[28] = system: COLO 205 colon
[29] = system: SK-MEL-5 melanoma
[30] = system: IGROV1 ovarian
[31] = system: SK-MEL-28 melanoma
[32] = system: SR leukemia
[33] = system: SN12C renal
[34] = system: A498 renal
[35] = system: OVCAR-8 ovarian
[36] = system: HOP-62 NSCLC
[37] = system: HCC-2998 colon
[38] = system: SK-OV-3 ovarian
[39] = system: SF-539 CNS
[40] = system: EKVX NSCLC
[41] = system: SF-268 CNS
[42] = system: CCRF-CEM leukemia
[43] = system: BT-549 breast
[44] = system: HL-60(TB) leukemia
[45] = system: HT29 colon
[46] = system: T-47D breast
[47] = system: SK-MEL-2 melanoma
[48] = system: UO-31 renal
[49] = system: MDA-MB-231 breast
[50] = system: K-562 leukemia
[51] = system: OVCAR-5 ovarian
[52] = system: SNB-75 CNS
[53] = system: U251 CNS
[54] = system: OVCAR-3 ovarian
[55] = system: OVCAR-4 ovarian
[56] = system: ACHN renal
[57] = system: UACC-257 melanoma
[58] = system: PC-3 prostate
[59] = system: RPMI-8226 leukemia

For `Fc1ccc(NC(=S)SCc2ccc3c(c2)OCO3)cc1F`, the TGI [1] was 39.1 µM, the TGI [2] was 88.9 µM and the TGI [3] was 51.8 µM. The TGI [4] was 39.3 µM, the TGI [5] was greater than 100 µM and the TGI [6] was 44.6 µM. It also gave a TGI [7] of 51.6 µM, a TGI [8] greater than 100 µM and a TGI [9] greater than 100 µM. For the same compound, the TGI [10] was 88.7 µM, the TGI [11] was greater than 100 µM and the TGI [12] was 36.2 µM. The TGI [13] was 61.7 µM, the TGI [14] was greater than 100 µM and the TGI [15] was 72.4 µM. It also gave a TGI [16] of 35.4 µM, a TGI [17] of 34.7 µM and a TGI [18] of 34.5 µM. The TGI [19] was 28.6 µM, the TGI [20] was 76.3 µM and the TGI [21] was 27.3 µM. For the same compound, the TGI [22] was 75.7 µM, the TGI [23] was greater than 100 µM and the TGI [24] was greater than 100 µM. The TGI [25] was 39.8 µM, the TGI [26] was greater than 100 µM and the TGI [27] was 32.2 µM. For the same compound, the TGI [28] was 44.9 µM, the TGI [29] was 29.5 µM and the TGI [30] was 39.6 µM. The TGI [31] was 13 µM, the TGI [32] was 43.9 µM and the TGI [33] was 39.4 µM. The TGI [34] was 61.8 µM, the TGI [35] was 35.9 µM and the TGI [36] was greater than 100 µM. For the same compound, the TGI [37] was 71.5 µM, the TGI [38] was greater than 100 µM and the TGI [39] was 53.5 µM. For the same compound, the TGI [40] was 34.1 µM, the TGI [41] was 52.8 µM and the TGI [42] was 77.3 µM. It also gave a TGI [43] of 51.4 µM, a TGI [44] of 42.6 µM and a TGI [45] of 45.3 µM. The TGI [46] was 33 µM, the TGI [47] was 36 µM and the TGI [48] was 37.9 µM. The TGI [49] was greater than 100 µM, the TGI [50] was 59 µM and the TGI [51] was 46.3 µM. The TGI [52] was 66.8 µM, the TGI [53] was 43.1 µM and the TGI [54] was greater than 100 µM. It also gave a TGI [55] greater than 100 µM, a TGI [56] of 64.4 µM and a TGI [57] of 64 µM. The TGI [58] was 76.6 µM.
`Cc1nc2n(c1/C=C1/C(=O)Nc3cccc(Cl)c31)CCS2` was tested, and the TGI [1] was greater than 100 µM, the TGI [2] was 66.8 µM and the TGI [3] was greater than 100 µM. It also gave a TGI [4] of 62.5 µM, a TGI [5] greater than 100 µM and a TGI [6] greater than 100 µM. For the same compound, the TGI [7] was greater than 100 µM, the TGI [9] was greater than 100 µM and the TGI [10] was 53.9 µM. It also gave a TGI [11] greater than 100 µM, a TGI [12] greater than 100 µM and a TGI [13] greater than 100 µM. It also gave a TGI [14] greater than 100 µM, a TGI [15] greater than 100 µM and a TGI [16] greater than 100 µM. It also gave a TGI [17] greater than 100 µM, a TGI [18] greater than 100 µM and a TGI [19] greater than 100 µM. The TGI [20] was greater than 100 µM, the TGI [21] was greater than 100 µM and the TGI [22] was greater than 100 µM. The TGI [23] was greater than 100 µM, the TGI [24] was greater than 100 µM and the TGI [25] was greater than 100 µM. It also gave a TGI [26] greater than 100 µM, a TGI [27] of 50.6 µM and a TGI [28] greater than 100 µM. It also gave a TGI [29] greater than 100 µM, a TGI [30] greater than 100 µM and a TGI [31] greater than 100 µM. The TGI [32] was greater than 100 µM, the TGI [33] was greater than 100 µM and the TGI [34] was greater than 100 µM. For the same compound, the TGI [35] was 88.4 µM, the TGI [36] was 74.1 µM and the TGI [37] was greater than 100 µM. For the same compound, the TGI [38] was 35.1 µM, the TGI [39] was 35.2 µM and the TGI [40] was greater than 100 µM. It also gave a TGI [41] of 52.1 µM, a TGI [42] greater than 100 µM and a TGI [43] of 98.7 µM. The TGI [44] was greater than 100 µM, the TGI [45] was greater than 100 µM and the TGI [46] was 54.9 µM. The TGI [47] was 51.8 µM, the TGI [48] was greater than 100 µM and the TGI [49] was 52.5 µM. The TGI [50] was greater than 100 µM, the TGI [51] was greater than 100 µM and the TGI [52] was 37.5 µM. For the same compound, the TGI [53] was 34.7 µM, the TGI [54] was greater than 100 µM and the TGI [59] was greater than 100 µM. It also gave a TGI [56] greater than 100 µM, a TGI [57] greater than 100 µM and a TGI [58] greater than 100 µM.
Work on `CC(C)(C)OC(=O)NCCCCC1NC(=O)[C@@H]2Cc3c([nH]c4ccccc34)C(C3CCCCC3)N2C1=O` (some centres undefined) yielded a TGI [1] greater than 100 µM, a TGI [2] greater than 100 µM and a TGI [3] greater than 100 µM. For the same compound, the TGI [4] was greater than 100 µM, the TGI [5] was greater than 100 µM and the TGI [6] was greater than 100 µM. The TGI [7] was greater than 100 µM, the TGI [8] was greater than 100 µM and the TGI [9] was greater than 100 µM. For the same compound, the TGI [10] was greater than 100 µM, the TGI [11] was greater than 100 µM and the TGI [12] was greater than 100 µM. It also gave a TGI [13] greater than 100 µM, a TGI [14] of 63 µM and a TGI [15] greater than 100 µM. The TGI [16] was greater than 100 µM, the TGI [17] was greater than 100 µM and the TGI [18] was greater than 100 µM. It also gave a TGI [19] greater than 100 µM, a TGI [20] greater than 100 µM and a TGI [21] greater than 100 µM. The TGI [22] was greater than 100 µM, the TGI [23] was greater than 100 µM and the TGI [24] was greater than 100 µM. The TGI [25] was 44.9 µM, the TGI [26] was greater than 100 µM and the TGI [27] was 25.6 µM. The TGI [28] was 55.1 µM, the TGI [29] was greater than 100 µM and the TGI [30] was greater than 100 µM. For the same compound, the TGI [31] was greater than 100 µM, the TGI [32] was 36.8 µM and the TGI [33] was greater than 100 µM. For the same compound, the TGI [34] was greater than 100 µM, the TGI [35] was greater than 100 µM and the TGI [36] was greater than 100 µM. It also gave a TGI [37] of 67.3 µM, a TGI [38] greater than 100 µM and a TGI [40] greater than 100 µM. It also gave a TGI [41] greater than 100 µM, a TGI [43] greater than 100 µM and a TGI [44] greater than 100 µM. It also gave a TGI [45] greater than 100 µM, a TGI [46] greater than 100 µM and a TGI [47] greater than 100 µM. For the same compound, the TGI [48] was greater than 100 µM, the TGI [49] was greater than 100 µM and the TGI [50] was greater than 100 µM. The TGI [51] was greater than 100 µM, the TGI [53] was greater than 100 µM and the TGI [54] was 47.5 µM. It also gave a TGI [55] greater than 100 µM, a TGI [59] of 41 µM and a TGI [56] greater than 100 µM. It also gave a TGI [57] greater than 100 µM and a TGI [58] greater than 100 µM.
In the case of `CCOC(=O)C(SCCO)C(C(=O)OCC)n1cnc2c(=O)[nH]c(NC(C)=O)nc21` (centres undefined), the TGI [1] is reported as greater than 100 µM, the TGI [2] is reported as greater than 100 µM and the TGI [3] is reported as greater than 100 µM. The TGI [4] was greater than 100 µM, the TGI [5] was greater than 100 µM and the TGI [6] was greater than 100 µM. For the same compound, the TGI [7] was greater than 100 µM, the TGI [8] was greater than 100 µM and the TGI [9] was greater than 100 µM. It also gave a TGI [10] greater than 100 µM, a TGI [11] greater than 100 µM and a TGI [12] greater than 100 µM. The TGI [13] was greater than 100 µM, the TGI [14] was greater than 100 µM and the TGI [15] was greater than 100 µM. For the same compound, the TGI [16] was greater than 100 µM, the TGI [17] was greater than 100 µM and the TGI [18] was greater than 100 µM. It also gave a TGI [19] greater than 100 µM, a TGI [20] greater than 100 µM and a TGI [21] greater than 100 µM. It also gave a TGI [22] greater than 100 µM, a TGI [23] greater than 100 µM and a TGI [24] greater than 100 µM. It also gave a TGI [25] greater than 100 µM, a TGI [26] greater than 100 µM and a TGI [28] greater than 100 µM. The TGI [29] was greater than 100 µM, the TGI [30] was greater than 100 µM and the TGI [31] was greater than 100 µM. The TGI [32] was greater than 100 µM, the TGI [33] was greater than 100 µM and the TGI [34] was greater than 100 µM. It also gave a TGI [35] greater than 100 µM, a TGI [36] greater than 100 µM and a TGI [37] greater than 100 µM. The TGI [38] was greater than 100 µM, the TGI [39] was greater than 100 µM and the TGI [40] was greater than 100 µM. It also gave a TGI [41] greater than 100 µM, a TGI [42] greater than 100 µM and a TGI [43] greater than 100 µM. It also gave a TGI [44] greater than 100 µM, a TGI [45] greater than 100 µM and a TGI [46] greater than 100 µM. It also gave a TGI [47] greater than 100 µM, a TGI [48] greater than 100 µM and a TGI [49] greater than 100 µM. The TGI [50] was greater than 100 µM, the TGI [51] was greater than 100 µM and the TGI [52] was greater than 100 µM. For the same compound, the TGI [53] was greater than 100 µM, the TGI [54] was greater than 100 µM and the TGI [55] was greater than 100 µM. The TGI [59] was greater than 100 µM, the TGI [56] was greater than 100 µM and the TGI [57] was greater than 100 µM. The TGI [58] was greater than 100 µM.
